Measured values from paper PMC10698194 (Nature Communications, 2023).
Where “and” joins values, the source holds several entries; their conditions need not be identical. Identical values can stand only once. Like-named read-outs stand apart in the source and are kept apart here. Bridge positions count the residues as written; N and C are the ends. Square brackets hold non-standard residues; d marks the D form. Peptide text beside a SMILES is read from it. * marks the point of attachment. X1 = C=CCN1CC[C@]23c4c5ccc(O)c4O[C@H]2[C@H](N*)CC[C@@]3(O)[C@H]1C5

Assays:
mouse KOR = mouse KOR (Mus musculus, UniProt P33534); experiment: cell-based; parameters: expressed in transfected cells; details: HEK-293T, read-out: Emax cAMP assay
human MOR = target: T1, human MOR (Homo sapiens, UniProt P35372); experiment: [35S]GTPγS binding assay, CHO membranes; format: biochemical; details: [35S]GTPγS
T1 construct: expressed in transfected cells

human KOR WT [1] = target: T2, human KOR WT (Homo sapiens, UniProt P41145); experiment: BRET β-arrestin-2 biosensor assay; format: cell-based; details: KOR WT
T2 construct: FLAG; expressed in transfected cells; host or cells: HEK293T, transient

human KOR WT [2] = target: T2, human KOR WT; experiment: cAMP inhibition assay normalized to salvinorin A; format: cell-based; details: KOR WT; normalized to salvinorin A
human KOR L309A [3] = target: T3, human KOR L309A (Homo sapiens, UniProt P41145, L309A); format: cell-based; details: HEK-293T, KOR L309A
T3 construct: FLAG; expressed in transfected cells; host or cells: HEK293T

human KOR H304A = target: T4, human KOR H304A (Homo sapiens, UniProt P41145, H304A); format: cell-based; details: HEK-293T
T4 construct: FLAG; expressed in transfected cells; host or cells: HEK293T

human KOR WT [4] = target: T2, human KOR WT; format: cell-based; details: HEK-293T, KOR WT
human KOR F293A = target: T5, human KOR F293A (Homo sapiens, UniProt P41145, F293A); format: cell-based; details: HEK-293T
T5 construct: FLAG; expressed in transfected cells; host or cells: HEK293 / HEK293T, transient

human KOR L309A [5] = target: T3, human KOR L309A; experiment: BRET β-arrestin-2 biosensor assay; format: cell-based; details: KOR L309A
human KOR E209A = target: T6, human KOR E209A (Homo sapiens, UniProt P41145, E209A); experiment: BRET β-arrestin-2 biosensor assay; format: cell-based; details: KOR E209A
T6 construct: FLAG; expressed in transfected cells; host or cells: HEK293 / HEK293T, transient

human KOR I316A = target: T7, human KOR I316A (Homo sapiens, UniProt P41145, I316A); format: cell-based; details: HEK-293T
T7 construct: FLAG; expressed in transfected cells; host or cells: HEK293 / HEK293T, transient

human KOR I135A = target: T8, human KOR I135A (Homo sapiens, UniProt P41145, I135A); experiment: BRET β-arrestin-2 biosensor assay; format: cell-based
T8 construct: FLAG; expressed in transfected cells; host or cells: HEK293 / HEK293T, transient

mouse KOR, GαoB = mouse KOR, GαoB (Mus musculus, UniProt P33534); experiment: TRUPATH BRET G protein assay, GαoB; format: cell-based; details: read-out: Emax (%) GαoB
human KOR E297A [6] = target: T9, human KOR E297A (Homo sapiens, UniProt P41145, E297A); experiment: BRET β-arrestin-2 biosensor assay; format: cell-based; details: KOR E297A
T9 construct: FLAG; expressed in transfected cells; host or cells: HEK293T

human KOR D138A = target: T10, human KOR D138A (Homo sapiens, UniProt P41145, D138A); experiment: cAMP inhibition assay normalized to salvinorin A; format: cell-based
T10 construct: expressed in transfected cells

mouse KOR, Gαi1 = mouse KOR, Gαi1 (Mus musculus, UniProt P33534); experiment: TRUPATH BRET G protein assay, Gαi1; format: cell-based; details: read-out: Emax (%) Gαi1
male SWISS mice = experiment: CFA-induced inflammatory hyperalgesia, Hargreaves test; format: in vivo, mouse; details: for CFA-induced inflammatory hyperalgesia (paw withdrawal latency): individual mice, listed as DNCP-ß-NalA (1)
Experimental: CFA-induced inflammatory hyperalgesia was induced in male SWISS mice (8–10 weeks old, 30–35 g body weight, n = 53 mice) by s.c. injection of 20 µL emulsified CFA (1 mg mL^−1) into the plantar surface of the right hindpaw under brief isoflurane anesthesia. Nociceptive testing was performed 72 h after inoculation with CFA. Hindpaws withdrawal latencies to thermal stimulation were measured using the Hargreaves test[84] with an analgesiometer (Ugo Basile S.R.L., Varese, Italy). Male mice were habituated in individual Plexiglas boxes positioned on a glass surface (Ugo Basile S.R.L., Varese, Italy) for three days prior to the inoculation with CFA. A movable infrared generator (30% intensity) located under the glass floor was focused onto the plantar surface of the hindpaw and switched on to heat. Onset of the radiant stimulus triggered a timer, which was stopped by subsequent paw movement. To prevent tissue damage, a cut-off time of 20 s was imposed. […] The paw withdrawal latencies to thermal stimulus was expressed in seconds.

human KOR M142A = target: T11, human KOR M142A (Homo sapiens, UniProt P41145, M142A); experiment: BRET β-arrestin-2 biosensor assay; format: cell-based
T11 construct: FLAG; expressed in transfected cells; host or cells: HEK293 / HEK293T, transient

[7] = Serum stability assay (HPLC)
Experimental: Blood was drawn from healthy volunteers devoid of any medication for 14 days from the antecubital vein using 21 G needles and collected in a serum clot activator tube (4 mL tubes, Greiner bio-one). […] Volunteers gave written informed consent before blood donation. […] Blood samples were collected into Vacuette® clot activator tubes (Greiner Bio-One, Austria). After clotting of about 2 h, the samples were centrifuged at 2200 × g for 15 min at 22 °C. The serum was removed and centrifuged again to remove lipids and cell particles at 16,000 × g at 4 °C for 20 min. […] The samples were incubated at 37 °C under continuous shaking at 300 rotations-per-minute. […] The samples were mixed well and incubated on ice for 10 min. For the protein precipitation, 30 µL of a 20% (w/v) trichloroacetic acid was added and incubated on ice for 15 min. The clear supernatant was harvested by centrifugation at 16,000 × g at 4 °C for 20 min and this sample was used for HPLC analysis. The chromatography HPLC system was a ThermoFisher Ultimate 3000 equipped with a pump, autosampler and single wavelength detector. […] The remaining peptide was calculated relative to the AUC at time point zero. The data points were fitted to a one-phase decay function and to determine the resulting half-life of the peptide in serum.
0.1% trifluoroacetic acid in water and acetonitrile/water trifluoroacetic acid 90/10/0.1% (v/v/v) with a
linear separation gradient over 30 min.

human KOR E297A [8] = target: T9, human KOR E297A; format: cell-based; details: HEK-293T, KOR E297A
human KOR K227A = target: T12, human KOR K227A (Homo sapiens, UniProt P41145, K227A); experiment: BRET β-arrestin-2 biosensor assay; format: cell-based
T12 construct: FLAG; expressed in transfected cells; host or cells: HEK293 / HEK293T, transient

mouse KOR, Gαgustducin = mouse KOR, Gαgustducin (Mus musculus, UniProt P33534); experiment: TRUPATH BRET G protein assay, Gαgustducin; format: cell-based; details: read-out: Emax (%) Gαgustducin
Sequence of mouse KOR, Gαgustducin (P33534 whole entry): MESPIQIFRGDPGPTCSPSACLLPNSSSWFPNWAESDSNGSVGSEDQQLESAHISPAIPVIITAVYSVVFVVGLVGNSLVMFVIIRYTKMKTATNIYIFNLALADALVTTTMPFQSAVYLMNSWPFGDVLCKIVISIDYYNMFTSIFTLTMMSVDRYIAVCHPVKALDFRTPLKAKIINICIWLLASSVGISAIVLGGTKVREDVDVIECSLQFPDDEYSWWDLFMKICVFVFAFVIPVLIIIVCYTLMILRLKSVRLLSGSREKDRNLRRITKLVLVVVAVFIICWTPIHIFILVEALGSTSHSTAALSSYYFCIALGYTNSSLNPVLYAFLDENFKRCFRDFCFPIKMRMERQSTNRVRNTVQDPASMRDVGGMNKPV
Sequence of mouse KOR, Gαgustducin (A8MTJ3 2-354 partner): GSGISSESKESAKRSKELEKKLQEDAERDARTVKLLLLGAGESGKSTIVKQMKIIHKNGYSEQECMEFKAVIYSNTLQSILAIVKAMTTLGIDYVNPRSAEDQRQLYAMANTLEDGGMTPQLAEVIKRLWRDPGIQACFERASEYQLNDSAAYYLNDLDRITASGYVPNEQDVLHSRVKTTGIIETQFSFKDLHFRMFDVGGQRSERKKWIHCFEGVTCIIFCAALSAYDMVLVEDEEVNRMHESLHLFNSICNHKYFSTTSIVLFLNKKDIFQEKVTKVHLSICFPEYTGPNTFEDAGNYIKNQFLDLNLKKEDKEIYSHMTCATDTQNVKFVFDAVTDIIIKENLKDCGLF

T2 sequence (P41145 whole entry): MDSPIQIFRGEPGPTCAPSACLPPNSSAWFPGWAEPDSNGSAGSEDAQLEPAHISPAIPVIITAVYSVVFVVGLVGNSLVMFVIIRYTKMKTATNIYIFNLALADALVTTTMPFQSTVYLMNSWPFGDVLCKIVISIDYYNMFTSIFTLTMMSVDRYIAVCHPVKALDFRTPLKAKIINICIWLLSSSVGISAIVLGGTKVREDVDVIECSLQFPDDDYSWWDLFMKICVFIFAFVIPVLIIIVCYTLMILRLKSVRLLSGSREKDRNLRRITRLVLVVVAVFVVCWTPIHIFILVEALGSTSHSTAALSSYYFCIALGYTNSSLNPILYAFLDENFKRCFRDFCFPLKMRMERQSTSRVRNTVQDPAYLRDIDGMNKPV
T8 sequence (P41145 whole entry I135A): as the sequence (P41145 whole entry) above, with I135A counted along it
T10 sequence (P41145 whole entry D138A): as the sequence (P41145 whole entry) above, with D138A counted along it
T3 sequence (P41145 whole entry L309A): as the sequence (P41145 whole entry) above, with L309A counted along it
T9 sequence (P41145 whole entry E297A): as the sequence (P41145 whole entry) above, with E297A counted along it
Sequence of mouse KOR, GαoB (P33534 whole entry): as the sequence (P33534 whole entry) above
Sequence of mouse KOR, GαoB (P09471 2-354 partner): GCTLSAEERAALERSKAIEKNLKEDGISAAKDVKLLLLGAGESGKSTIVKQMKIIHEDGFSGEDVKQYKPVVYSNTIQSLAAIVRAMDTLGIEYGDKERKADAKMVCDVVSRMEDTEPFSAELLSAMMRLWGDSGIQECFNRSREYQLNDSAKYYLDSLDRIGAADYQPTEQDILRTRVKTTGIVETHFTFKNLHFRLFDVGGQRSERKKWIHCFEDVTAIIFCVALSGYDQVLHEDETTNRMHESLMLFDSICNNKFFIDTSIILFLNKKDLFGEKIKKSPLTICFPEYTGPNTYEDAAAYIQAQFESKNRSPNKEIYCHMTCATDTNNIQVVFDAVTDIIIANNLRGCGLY
Sequence of mouse KOR, Gαi1 (P33534 whole entry): as the sequence (P33534 whole entry) above
Sequence of mouse KOR, Gαi1 (P63096 2-354 partner): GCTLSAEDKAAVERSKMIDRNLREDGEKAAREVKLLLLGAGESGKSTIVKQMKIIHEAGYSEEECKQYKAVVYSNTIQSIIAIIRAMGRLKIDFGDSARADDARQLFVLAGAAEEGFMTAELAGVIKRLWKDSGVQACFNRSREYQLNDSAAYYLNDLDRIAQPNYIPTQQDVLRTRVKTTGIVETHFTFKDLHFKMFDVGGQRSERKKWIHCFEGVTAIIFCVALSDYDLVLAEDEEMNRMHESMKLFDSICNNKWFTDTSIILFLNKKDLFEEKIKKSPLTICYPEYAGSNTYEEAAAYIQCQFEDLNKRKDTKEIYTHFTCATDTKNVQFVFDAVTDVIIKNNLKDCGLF
Sequence of mouse KOR (P33534 whole entry): as the sequence (P33534 whole entry) above
T4 sequence (P41145 whole entry H304A): as the sequence (P41145 whole entry) above, with H304A counted along it
T7 sequence (P41145 whole entry I316A): as the sequence (P41145 whole entry) above, with I316A counted along it
T5 sequence (P41145 whole entry F293A): as the sequence (P41145 whole entry) above, with F293A counted along it
T6 sequence (P41145 whole entry E209A): as the sequence (P41145 whole entry) above, with E209A counted along it
T11 sequence (P41145 whole entry M142A): as the sequence (P41145 whole entry) above, with M142A counted along it
T12 sequence (P41145 whole entry K227A): as the sequence (P41145 whole entry) above, with K227A counted along it
T1 sequence (P35372 whole entry): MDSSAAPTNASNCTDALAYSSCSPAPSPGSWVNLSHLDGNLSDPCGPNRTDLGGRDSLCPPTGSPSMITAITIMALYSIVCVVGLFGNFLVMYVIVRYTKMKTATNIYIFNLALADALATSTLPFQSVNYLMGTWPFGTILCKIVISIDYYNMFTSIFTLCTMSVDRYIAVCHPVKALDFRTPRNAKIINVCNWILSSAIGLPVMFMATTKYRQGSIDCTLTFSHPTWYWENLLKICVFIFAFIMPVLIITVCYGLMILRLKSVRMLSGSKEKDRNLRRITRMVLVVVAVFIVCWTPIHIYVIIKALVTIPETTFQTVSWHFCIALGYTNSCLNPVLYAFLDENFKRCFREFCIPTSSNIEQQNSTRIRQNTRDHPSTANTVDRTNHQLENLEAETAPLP

With `C=CCN1CC[C@]23c4c5ccc(O)c4O[C@H]2[C@H](NC(=O)[C@@H](Cc2ccccc2)NC(=O)[C@@H](NC(=O)[C@@H]2CSCC(=O)N[C@@H](Cc4ccc(O)cc4)C(=O)N[C@@H](C)C(=O)N[C@H](Cc4ccc(O)cc4)C(=O)N[C@@H]([C@@H](C)O)C(=O)N[C@@H]([C@@H](C)O)C(=O)N2)[C@@H](C)O)CC[C@@]3(O)[C@H]1C5` [DNCP-β-NalA(1)] ({CH2CO}-YA[dY]TTCT[dF]-X1; thioether N-6) the Emax (mouse KOR) was 92 ± 1%, the “EC50 (M) MOR” value (human MOR) was “no stimulation up to 10 µM” and the Emax (human KOR WT [1]) was 35.3 ± 1.13%. The Emax (human KOR WT [2]) was 100.6 ± 0.9%, the Emax (human KOR L309A [3]) was 95.98 ± 0.44% and the Emax (human KOR H304A) was 92.57 ± 0.43%. It also gave an Emax (human KOR WT [4]) of 85.9 ± 1.2%, an Emax (human KOR F293A) of 85.55 ± 0.78% and an Emax (human KOR L309A [5]) of 62.2 ± 1.08%. For the same compound, the Emax (human KOR E209A) was 87.3 ± 1.31%, the Emax (human KOR I316A) was 85.75 ± 0.72% and the BRET-βarresin2 recruitment (human KOR I135A; Log [ligand] (M) -5, single replicates) was 0.1789 and 0.1779 and 0.1349 and 0.1369 (2×). The BRET-βarresin2 recruitment (human KOR I135A; Log [ligand] (M) -6, single replicates) was 0.1739 and 0.1699 and 0.1669 and 0.1229 and 0.1319 and 0.1359, the BRET-βarresin2 recruitment (human KOR I135A; Log [ligand] (M) -7, single replicates) was 0.1699 (2×) and 0.1609 and 0.1309 and 0.1289 and 0.1299 and the BRET-βarresin2 recruitment (human KOR I135A; Log [ligand] (M) -8, single replicates) was 0.1669 and 0.1659 and 0.1729 and 0.1269 and 0.1239 and 0.1349. The BRET-βarresin2 recruitment (human KOR I135A; Log [ligand] (M) -9, single replicates) was 0.1669 (2×) and 0.1649 and 0.1249 and 0.1239 and 0.1259, the BRET-βarresin2 recruitment (human KOR I135A; Log [ligand] (M) -10, single replicates) was 0.1689 and 0.1639 (2×) and 0.1279 and 0.1309 and 0.1339 and the BRET-βarresin2 recruitment (human KOR I135A; Log [ligand] (M) -11, single replicates) was 0.1699 and 0.1669 and 0.1689 and 0.1249 and 0.1279 (2×). The BRET-βarresin2 recruitment (human KOR I135A; Log [ligand] (M) -12, single replicates) was 0.1519 and 0.1569 (2×) and 0.1249 (2×) and 0.1259, the Emax (mouse KOR, GαoB) was 76 ± 6% and the Emax (human KOR E297A [6]) was 64.6 ± 1.35%. For the same compound, the “reduction of cAMP inhibition potency” value (human KOR D138A; D138A vs WT, authors' response) was 17 fold, the Emax (human KOR D138A; KOR D138A, normalized to salvinorin A) was 105 ± 2.4% and the Emax (mouse KOR, Gαi1) was 81%. The “CFA-induced inflammatory hyperalgesia (paw withdrawal latency)” value (“CFA-induced inflammatory hyperalgesia” for short) (male SWISS mice; 0.4 µmol/kg, time 0.5 h) was 4.5 s and 3.8 s and 3.4 s and 4.3 s and 3.3 s and 4.6 s, the “CFA-induced inflammatory hyperalgesia” value (male SWISS mice; 0.4 µmol/kg, time 1 h) was 4.1 s and 5.3 s and 2.8 s and 3.2 s and 3 s and 2.4 s and the “CFA-induced inflammatory hyperalgesia” value (male SWISS mice; 0.4 µmol/kg, time 2 h) was 5.2 seconds and 3.9 seconds and 3.8 seconds and 3.4 seconds (2×) and 3.2 seconds. The “CFA-induced inflammatory hyperalgesia” value (male SWISS mice; 0.4 µmol/kg, time 3 h) was 4.6 seconds and 3.9 seconds and 4.1 seconds and 3.4 seconds (2×) and 2.9 seconds, the “CFA-induced inflammatory hyperalgesia” value (male SWISS mice; 0.4 µmol/kg, time 4 h) was 4 s and 3.6 s and 3.4 s and 3 s and 3.2 s and 2.7 s and the “CFA-induced inflammatory hyperalgesia” value (male SWISS mice; 0.8 µmol/kg, time 0.5 h) was 3.8 s and 4.7 s and 5.2 s and 5.9 s and 4 s and 4.4 s. The “CFA-induced inflammatory hyperalgesia” value (male SWISS mice; 0.8 µmol/kg, time 1 h) was 3.4 seconds and 3.5 seconds (2×) and 4.2 seconds and 3.8 seconds and 3.6 seconds, the “CFA-induced inflammatory hyperalgesia” value (male SWISS mice; 0.8 µmol/kg, time 2 h) was 2.7 seconds and 3.7 seconds and 3.9 seconds (2×) and 3.4 seconds and 4 seconds and the “CFA-induced inflammatory hyperalgesia” value (male SWISS mice; 0.8 µmol/kg, time 3 h) was 3.5 seconds (3×) and 3.1 seconds (2×) and 2.9 seconds. For the same compound, the “CFA-induced inflammatory hyperalgesia” value (male SWISS mice; 0.8 µmol/kg, time 4 h) was 2.6 seconds and 3.4 seconds and 3 seconds and 3.2 seconds and 3.1 seconds (2×), the “CFA-induced inflammatory hyperalgesia” value (male SWISS mice; 0.8 µmol/kg, time BL) was 10.2 s and 11.3 s and 9.9 s and 10.1 s and 10.3 s and the “CFA-induced inflammatory hyperalgesia” value (male SWISS mice; 1.9 µmol/kg, time 0.5 h) was 4.2 s and 5.6 s and 7.4 s and 7.3 s and 7.2 s and 5.3 s. The “CFA-induced inflammatory hyperalgesia” value (male SWISS mice; 1.9 µmol/kg, time 1 h) was 3.9 seconds and 4.5 seconds (2×) and 6.6 seconds and 5 seconds and 3.5 seconds, the “CFA-induced inflammatory hyperalgesia” value (male SWISS mice; 1.9 µmol/kg, time 2 h) was 2.9 s and 4.1 s and 4.4 s and 3.4 s and 3.5 s and 3.8 s and the “CFA-induced inflammatory hyperalgesia” value (male SWISS mice; 1.9 µmol/kg, time 3 h) was 3.5 seconds (2×) and 3.8 seconds and 4.4 seconds and 3.3 seconds and 2.9 seconds. The “CFA-induced inflammatory hyperalgesia” value (male SWISS mice; 1.9 µmol/kg, time 4 h) was 2.5 seconds and 2.6 seconds and 2.7 seconds (2×) and 2.8 seconds and 3.5 seconds, the “CFA-induced inflammatory hyperalgesia” value (male SWISS mice; 1.9 µmol/kg, time BL) was 10.6 s and 9.8 s and 10 s and 10.4 s and 10.3 s and the “return of thermal nociceptive thresholds to basal values” (male SWISS mice; after drug administration) was 2 h. For the same compound, the “time of peak effect” value (male SWISS mice; s.c.) was 15 min, the “effect on thermal sensitivity / paw withdrawal latencies” value (male SWISS mice; s.c., male mice) was “significantly reduced thermal sensitivity” and the Emax (human KOR M142A) was 91.7 ± 11.6%. For the same compound, the “serum stability, amount remaining, Figure S15” value ([7]; Time (min) 0) was 100, the stable in serum ([7]; authors' response in peer review file) was “at least 50 h” and the remaining at 5 min, 50 µM ([7]; human, human serum, serum stability, amount remaining, Figure S15, Time (min) 5) was 94%. For the same compound, the remaining at 10 min, 50 µM ([7]; human, human serum, serum stability, amount remaining, Figure S15, Time (min) 10) was 94%, the remaining at 20 min, 50 µM ([7]; human, human serum, serum stability, amount remaining, Figure S15, Time (min) 20) was 99% and the remaining at 40 min, 50 µM ([7]; human, human serum, serum stability, amount remaining, Figure S15, Time (min) 40) was 96%. For the same compound, the remaining at 1 h, 50 µM ([7]; human, human serum, serum stability, amount remaining, Figure S15, Time (min) 60) was 106%, the remaining at 2 h, 50 µM ([7]; human, human serum, serum stability, amount remaining, Figure S15, Time (min) 120) was 98% and the remaining at 4 h, 50 µM ([7]; human, human serum, serum stability, amount remaining, Figure S15, Time (min) 240) was 101%. The remaining at 6 h, 50 µM ([7]; human, human serum, serum stability, amount remaining, Figure S15, Time (min) 360) was 99%, the remaining at 24 h, 50 µM ([7]; human, human serum, serum stability, amount remaining, Figure S15, Time (min) 1440) was 98% and the remaining at 48 h, 50 µM ([7]; human, human serum, serum stability, amount remaining, Figure S15, Time (min) 2880) was 96%. For the same compound, the remaining at 48 h, 50 µM ([7]; human, human serum, serum stability, remaining intact, after 48 h, 37 °C) was > 95%, the Emax (human KOR E297A [8]) was 96.28 ± 0.53% and the Emax (human KOR K227A) was 16.9 ± 2.26%. For the same compound, the Emax (mouse KOR, Gαgustducin) was 101 ± 5%.
